Laboratory results reported in patent US12319648B2, “Fluorinated phenylacetic acid derivatives in a weed control method” (SYNGENTA CROP PROTECTION AG, priority 2019, dated 2025).

Columns and labels:
Assay type in all cases: in vivo
[1] = test system: Amaranthus retoflexus (AMARE); experiment: Post-emergence herbicidal glasshouse test; conditions: post-emergence, 250 g/ha, 13 days after application
Description: (§1) Seeds of a variety of test species are shown in standard soil in pots Amaranthus retoflexus (AMARE), Ipomoea hederacea (IPOHE), Solanum nigrum (SOLNI), Lolium perenne (LOLPE). Echinochloa crus-galli (ECHCG), Setaria faberi (SETFA)). After cultivation for one day (pre-emergence) or after 8 days cultivation (post-emergence) under controlled conditions in a glasshouse (at 24/16° C., day/night; 14 hours light; 65% humidity), the plants are sprayed with an aqueous spray solution derived from the formulation of the technical active ingredient in acetone/water (50:50) solution containing 0.5% Tween 20 (polyoxyethylene sorbitan monolaurate, CAS RN 9005-64-5). Compounds are applied at 250 g/ha unless otherwise stated. The test plants are then grown in a glasshouse under controlled conditions in a glasshouse (at 24/16° C., day/night; 14 hours light; 65% humidity) and watered twice daily. After 13 days for pre and post-emergence, the test is evaluated for the percentage damage caused to the plant. The biological activities are shown in the following table on a five-point scale (5=81-100%; 4=61-80%; 3=41-60%; 2=21-40%; 1=0-20%).
(§2) Using the experimental conditions outlined above, a further test is conducted to compare the herbicidal properties of the difluro containing compound (1.014) with a representative compound (C1) referred to in GB901553. The compounds are applied at 1000 g/ha and 500 g/ha. The test is evaluated for the percentage damage caused to the plant (% phytotoxicity).

[2] = test system: Echinochloa crus-galli (ECHCG); experiment: Post-emergence herbicidal glasshouse test; conditions: post-emergence, 250 g/ha, 13 days after application
Description: as §1, §2

[3] = test system: Ipomoea hederacea (IPOHE); experiment: Post-emergence herbicidal glasshouse test; conditions: post-emergence, 250 g/ha, 13 days after application
Description: as §1, §2

[4] = test system: Amaranthus retoflexus (AMARE); experiment: Pre-emergence herbicidal glasshouse test; conditions: pre-emergence, 250 g/ha, 13 days after application
Description: as §1, §2

[5] = test system: Echinochloa crus-galli (ECHCG); experiment: Pre-emergence herbicidal glasshouse test; conditions: pre-emergence, 250 g/ha, 13 days after application
Description: as §1, §2

[6] = test system: Ipomoea hederacea (IPOHE); experiment: Pre-emergence herbicidal glasshouse test; conditions: pre-emergence, 250 g/ha, 13 days after application
Description: as §1, §2

[7] = test system: Lolium perenne (LOLPE); experiment: Post-emergence herbicidal glasshouse test; conditions: post-emergence, 250 g/ha, 13 days after application
Description: as §1, §2

[8] = test system: Solanum nigrum (SOLNI); experiment: Post-emergence herbicidal glasshouse test; conditions: post-emergence, 250 g/ha, 13 days after application
Description: as §1, §2

[9] = test system: Setaria faberi (SETFA); experiment: Post-emergence herbicidal glasshouse test; conditions: post-emergence, 250 g/ha, 13 days after application
Description: as §1, §2

[10] = test system: Lolium perenne (LOLPE); experiment: Pre-emergence herbicidal glasshouse test; conditions: pre-emergence, 250 g/ha, 13 days after application
Description: as §1, §2

[11] = test system: Setaria faberi (SETFA); experiment: Pre-emergence herbicidal glasshouse test; conditions: pre-emergence, 250 g/ha, 13 days after application
Description: as §1, §2

Which results are given for `Cc1cccc(C(F)(F)C(=O)O)c1F.N` [Compound 1.061]?
percentage damage caused to the plant, five-point scale, AMARE [1]: 1 (1=0-20%); percentage damage caused to the plant, five-point scale, ECHCG [2]: 1 (1=0-20%); percentage damage caused to the plant, five-point scale, IPOHE [3]: 3 (3=41-60%); percentage damage caused to the plant, five-point scale, AMARE [4]: 3 (3=41-60%); percentage damage caused to the plant, five-point scale, ECHCG [5]: 1 (1=0-20%); percentage damage caused to the plant, five-point scale, IPOHE [6]: 1 (1=0-20%)

For `Cc1c(Cl)ccc(Cl)c1C(F)(F)C(=O)O.N` [Compound 1.084], which “percentage damage caused to the plant, five-point scale, AMARE” value (“percentage damage caused … AMARE” for short) [1] is on record?
Its value is 2 (2=21-40%).

And the “percentage damage caused to the plant, five-point scale, ECHCG” value (“percentage damage caused … ECHCG” for short) [2]?
Its value is 1 (1=0-20%).

And the “percentage damage caused to the plant, five-point scale, IPOHE” value (shortened to “percentage damage caused … IPOHE”) [3]?
Its value is 4 (4=61-80%).

What about the “percentage damage caused … AMARE” value [4] of the same molecule?
Its value is 2 (2=21-40%).

What about the “percentage damage caused … ECHCG” value [5] of the same molecule?
The value was 1 (1=0-20%).

And the “percentage damage caused … IPOHE” value [6]?
Its value is 1 (1=0-20%).

`O=C(O)C(F)(F)c1cccc(Cl)c1Cl` [Compound 1.041] was tested. Which “percentage damage caused … ECHCG” value [2] did it give?
Its value is 4 (4=61-80%).

What about the “percentage damage caused to the plant, five-point scale, LOLPE” value (shortened to “percentage damage caused … LOLPE”) [7] of the same molecule?
The value was 4 (4=61-80%).

And the “percentage damage caused to the plant, five-point scale, SOLNI” value [8]?
The value was 4 (4=61-80%).

How did the “percentage damage caused … AMARE” value [1] turn out when `Cc1c(Cl)cccc1C(F)(F)C(=O)O` [Compound 1.058] was run?
The value was 5 (5=81-100%).

And the “percentage damage caused … ECHCG” value [2]?
The value was 3 (3=41-60%).

What about the “percentage damage caused … IPOHE” value [3] of the same molecule?
Its value is 5 (5=81-100%).

What about the “percentage damage caused … AMARE” value [4] of the same molecule?
The value was 5 (5=81-100%).

And the “percentage damage caused … ECHCG” value [5]?
Its value is 3 (3=41-60%).

What about the “percentage damage caused … IPOHE” value [6] of the same molecule?
The value was 5 (5=81-100%).

What does the source list for `Cc1cccc(C(F)(F)C(=O)O)c1C(F)(F)F.N` [Compound 1.062]?
percentage damage caused to the plant, five-point scale, AMARE [1]: 4 (4=61-80%); percentage damage caused to the plant, five-point scale, ECHCG [2]: 1 (1=0-20%); percentage damage caused to the plant, five-point scale, IPOHE [3]: 3 (3=41-60%); percentage damage caused to the plant, five-point scale, AMARE [4]: 3 (3=41-60%); percentage damage caused to the plant, five-point scale, ECHCG [5]: 1 (1=0-20%); percentage damage caused to the plant, five-point scale, IPOHE [6]: 3 (3=41-60%)

`O=C(O)C(F)(F)c1cccc(Cl)c1Cl` [Compound 1.034] was tested. Which “percentage damage caused … AMARE” value [1] did it give?
Its value is 5 (5=81-100%).

And the “percentage damage caused … ECHCG” value [2]?
The value was 2 (2=21-40%).

What about the “percentage damage caused … IPOHE” value [3] of the same molecule?
The value was 4 (4=61-80%).

What about the “percentage damage caused … LOLPE” value [7] of the same molecule?
The value was 1 (1=0-20%).

And the “percentage damage caused to the plant, five-point scale, SETFA” value [9]?
The value was 3 (3=41-60%).

What about the “percentage damage caused to the plant, five-point scale, SOLNI” value [8] of the same molecule?
Its value is 3 (3=41-60%).

And the “percentage damage caused … ECHCG” value [5]?
Its value is 2 (2=21-40%).

What about the “percentage damage caused … IPOHE” value [6] of the same molecule?
The value was 5 (5=81-100%).

What about the “percentage damage caused … LOLPE” value [10] of the same molecule?
The value was 2 (2=21-40%).

What about the “percentage damage caused to the plant, five-point scale, SETFA” value [11] of the same molecule?
The value was 1 (1=0-20%).

With `Cc1c(F)cccc1C(F)(F)C(=O)O` [Compound 1.075] as the molecule, how does the “percentage damage caused … AMARE” value [1] read?
Its value is 5 (5=81-100%).

What about the “percentage damage caused … ECHCG” value [2] of the same molecule?
The value was 1 (1=0-20%).

What about the “percentage damage caused … IPOHE” value [3] of the same molecule?
Its value is 4 (4=61-80%).

What about the “percentage damage caused … AMARE” value [4] of the same molecule?
The value was 3 (3=41-60%).

And the “percentage damage caused … ECHCG” value [5]?
Its value is 1 (1=0-20%).

What about the “percentage damage caused … IPOHE” value [6] of the same molecule?
The value was 3 (3=41-60%).

What does the source list for `O=C([O-])C(F)(F)c1cccc(Cl)c1Cl.[K+]` [Compound 1.042]?
percentage damage caused to the plant, five-point scale, AMARE [1]: 5 (5=81-100%); percentage damage caused to the plant, five-point scale, ECHCG [2]: 2 (2=21-40%); percentage damage caused to the plant, five-point scale, IPOHE [3]: 4 (4=61-80%); percentage damage caused to the plant, five-point scale, LOLPE [7]: 1 (1=0-20%); percentage damage caused to the plant, five-point scale, SETFA [9]: 3 (3=41-60%); percentage damage caused to the plant, five-point scale, SOLNI [8]: 4 (4=61-80%); percentage damage caused to the plant, five-point scale, ECHCG [5]: 1 (1=0-20%); percentage damage caused to the plant, five-point scale, IPOHE [6]: 5 (5=81-100%); percentage damage caused to the plant, five-point scale, LOLPE [10]: 2 (2=21-40%)
